The record followed here is patent US6803374B2, “Compounds useful for treating hepatitis C virus” (priority 2001, dated 2004).

One may read the IC50 as the concentration at which inhibition is half-maximal.

For the assay, the target named is T1, HCV NS5B RdRp genotype 1b (Hepatitis C virus genotype 1b, UniProt Q9WMX2).
T1 construct: The protein was expressed with an 18 amino acid C-terminal truncation to enhance the solubility; made in house; host or cells: E. coli BL21(DE3)
T1 sequence (Q9WMX2 2420-2992): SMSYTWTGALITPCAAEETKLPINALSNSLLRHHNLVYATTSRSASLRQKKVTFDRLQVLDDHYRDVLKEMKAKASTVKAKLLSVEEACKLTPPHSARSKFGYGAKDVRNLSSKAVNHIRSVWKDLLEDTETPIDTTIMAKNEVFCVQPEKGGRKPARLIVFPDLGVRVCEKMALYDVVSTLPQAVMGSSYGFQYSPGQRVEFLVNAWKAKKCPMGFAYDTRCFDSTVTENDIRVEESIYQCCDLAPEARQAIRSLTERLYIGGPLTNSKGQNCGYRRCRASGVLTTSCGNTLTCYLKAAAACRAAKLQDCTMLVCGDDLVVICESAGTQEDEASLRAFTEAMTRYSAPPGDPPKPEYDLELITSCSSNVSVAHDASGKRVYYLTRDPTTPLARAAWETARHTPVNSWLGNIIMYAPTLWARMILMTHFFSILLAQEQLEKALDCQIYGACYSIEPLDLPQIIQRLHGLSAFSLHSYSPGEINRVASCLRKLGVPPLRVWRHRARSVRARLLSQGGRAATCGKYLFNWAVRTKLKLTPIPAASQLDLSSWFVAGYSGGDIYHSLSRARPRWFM
As to the kind of experiment: HCV NS5B RdRp enzyme assay. It is filed as biochemical. The following applies: IC50, HCV RdRp genotype 1b enzyme, C-terminal 18 aa truncated; average of single point IC50 values. As to the method:
HCV NS5B RdRp cloning, expression and purification. The cDNA encoding the NS5B protein of HCV, genotype 1b, was cloned into the pET21a expression vector. The protein was expressed with an 18 amino acid C-terminal truncation to enhance the solubility. The E. coli competent cell line BL21(DE3) was used for expression of the protein. Cultures were grown at 37° C. for ˜4 hours until the cultures reached an optical density of 2.0 at 600 nm. The cultures were cooled to 20° C. and induced with 1 mM IPTG. Fresh ampicillin was added to a final concentration of 50 ug/ml and the cells were grown overnight at 20° C.
Cell pellets (3L) were lysed for purification to yield 15-24 mgs of purified NS5B. The lysis buffer consisted of 20 mM Tris-HCl, pH 7.4, 500 mM NaCl, 0.5% triton X-100, 1 mM DTT, 1 mM EDTA, 20% glycerol, 0.5 mg/ml lysozyme, 10 mM MgCl2, 15 ug/ml deoxyribonuclease I, and Complete TM protease inhibitor tablets (Roche). After addition of the lysis buffer, frozen cell pellets were resuspended using a tissue homogenizer. To reduce the viscosity of the sample, aliquots of the lysate were sonicated on ice using a microtip attached to a Branson sonicator. The sonicated lysate was centrifuged at 100,000×g for 1 hr at 4° C. and filtered through a 0.2 μm filter unit (Corning).
The protein was purified using three sequential chromatography steps: Heparin sepharose CL-6B, polyU sepharose 4B, and Hitrap SP sepharose (Pharmacia). The chromatography buffers were identical to the lysis buffer but contained no lysozyme, deoxyribonuclease I, MgCl2 or protease inhibitor and the NaCl concentration of the buffer was adjusted according to the requirements for charging the protein onto the column. Each column was eluted with a NaCl gradient which varied in length from 5-50 column volumes depending on the column type. After the final chromatography step, the resulting purity of the enzyme is >90% based on SDS-PAGE analysis. The enzyme was aliquoted and stored at −80° C.
HCV NS5B RdRp enzyme assay. HCV RdRp genotype 1b assays were run in assay buffer composed of 20 mM Tris-HCl, pH 7.5, 2.5 mM KCl, 5 mM MgCl2, 1 mM DTT, 1.6 U RNAse inhibitor (Promega N2515), in 96 well plates (Falcon 3918). All compounds were serially diluted in DMSO and diluted further in assay buffer such that the final concentration of DMSO in the assay was 2%. Compounds were serially diluted (3-fold each time) for a 7 point inhibition analysis. HCV RdRp genotype 1b enzyme was used at a final concentration of 28 nM. A polyA template was used at 28 nM, and the oligo-dT12-18 primer was used at 840 nM final concentration. Preannealed primer and template were obtained commercially (Amersham 27-787802). ^3H-UTP was used at 0.125 μCi (1 μM total UTP). Reaction was initiated by the addition of enzyme. Reactions were incubated at 30° C. for 45 min, and stopped by adding 30 ul of 20% ice cold TCA. Plates were chilled for 30 minutes and harvested onto Unifilter-96, GF/B plates (Packard, 6005177) using a Packard FilterMate Cell Harvester. The harvest plates were prewashed 3 times, 200 ul/well, with 100 mM NaPPi. Harvested filters were washed 30 times, 200 ul/well, with distilled water followed by ethanol. Filter plates were dried, and 30 ul/well microscint-20 was added. Plates were read on a Packard Top Count NXT.
The IC50 values for compounds were determined using […] different [I], combined with 7 nM enzyme, 800 ng of the template-primer polyC/oligoG12 (1:5 molar ratio), and 0.7 uM of ^3H GTP containing 1 uCi. The observed fractional activity (fa=vi/vo) was used in the equation IC50=[I]/(1/fa-1) to determine a single point IC50 value. Typically, the single point IC50 values derived from [I] that produced fractional activities in the range of 0.1 to 0.8 relative to the uninhibited control were averaged to calculate the IC50 value for each compound.
In turn, `O=C(O)CNC(=O)c1ccc(-c2cccc(O)c2)c(COc2ccc(-c3nc4cc(-c5nnn[nH]5)ccc4n3C3CCCCC3)cc2)c1` [Example 74] registered a half-inhibitory concentration (IC50) of 150 nM.

In the case of `O=C(c1ccc(-c2ccsc2)c(COc2ccc(-c3nc4cc(-c5nnn[nH]5)ccc4n3C3CCCCC3)cc2)c1)N1CCC(O)CC1` [Example 137], the IC50 is 1300 nM.

`COc1ccc(-c2ccc(C(=O)NC(Cc3ccc(O)cc3)C(=O)OC(C)(C)C)cc2COc2ccc(-c3nc4cc(-c5nnn[nH]5)ccc4n3C3CCCCC3)cc2)cc1OC` (centres unmarked) [Example 95] yielded an IC50 of 1400 nM.

In the case of `O=C(O)c1ccc(-c2ccc(CO)cc2)c(COc2ccc(-c3nc4cc(-c5nnn[nH]5)ccc4n3C3CCCCC3)cc2)c1` [Example 42], inhibition was half-maximal at 50 nM (IC50).

The compound `O=C(O)c1ccc(-c2ccc(Cl)cc2)c(COc2ccc(-c3nc4cc(-c5nnn[nH]5)ccc4n3C3CCCCC3)cc2)c1` [Example 23] gave a concentration for half-maximal inhibition (IC50) of 20 nM.

Take `COc1ccc(-c2ccc(C(=O)NCC(=O)OC(C)(C)C)cc2COc2ccc(-c3nc4cc(-c5nnn[nH]5)ccc4n3C3CCCCC3)cc2)cc1OC` [Example 96]: inhibition was half-maximal at 1600 nM (IC50).

`CC(=O)c1ccc(-c2ccc(C(=O)O)cc2COc2ccc(-c3nc4cc(-c5nnn[nH]5)ccc4n3C3CCCCC3)cc2)s1` [Example 120] had an IC50 of 20 nM.

Compound `O=C(NCCCO)c1ccc(-c2ccsc2)c(COc2ccc(-c3nc4cc(-c5nnn[nH]5)ccc4n3C3CCCCC3)cc2)c1` [Example 135] came in with an IC50 of 700 nM. This IC50 is about 35-fold higher than that of the compound before.

The compound `O=C(c1ccc(-c2ccc(Cl)cc2)c(COc2ccc(-c3nc4cc(-c5nnn[nH]5)ccc4n3C3CCCCC3)cc2)c1)N1CCC(O)CC1` [Example 48] registered an IC50 of 320 nM.

In turn, `CN1CCN(C(=O)c2ccc(-c3ccsc3)c(COc3ccc(-c4nc5cc(-c6nnn[nH]6)ccc5n4C4CCCCC4)cc3)c2)CC1` [Example 132] gave an IC50 of 830 nM.

For the compound `O=C(O)c1ccc(-c2ccco2)c(COc2ccc(-c3nc4cc(-c5nnn[nH]5)ccc4n3C3CCCCC3)cc2)c1` [Example 117], the IC50 was 290 nM.

In turn, `O=C(O)c1ccc(-c2ccc(O)cc2)c(COc2ccc(-c3nc4cc(-c5nnn[nH]5)ccc4n3C3CCCCC3)cc2)c1` [Example 46] registered an IC50 of 60 nM.

The compound `CC(=O)Nc1cccc(-c2ccc(C(=O)O)cc2COc2ccc(-c3nc4cc(-c5nnn[nH]5)ccc4n3C3CCCCC3)cc2)c1` [Example 32] returned an IC50 of 40 nM.

Take `COc1ccc(-c2ccc(C(=O)NC(Cc3ccc(O)cc3)C(=O)O)cc2COc2ccc(-c3nc4cc(-c5nnn[nH]5)ccc4n3C3CCCCC3)cc2)cc1OC` (centres unmarked) [Example 61]: inhibition was half-maximal at 90 nM (IC50).

Compound `O=C(O)c1ccc(-c2ccc3c(c2)OCO3)c(COc2ccc(-c3nc4cc(-c5nnn[nH]5)ccc4n3C3CCCCC3)cc2)c1` [Example 118] returned an IC50 of 70 nM. This IC50 and that of the compound before are within 1.5-fold of each other.

`NC(=O)CCNC(=O)c1ccc(-c2ccsc2)c(COc2ccc(-c3nc4cc(-c5nnn[nH]5)ccc4n3C3CCCCC3)cc2)c1` [Example 131]: inhibition was half-maximal at 230 nM (IC50).

In the case of `CC(NC(=O)c1ccc(-c2cccc(O)c2)c(COc2ccc(-c3nc4cc(-c5nnn[nH]5)ccc4n3C3CCCCC3)cc2)c1)C(=O)OC(C)(C)C` (centres unmarked) [Example 71], it took 520 nM to reach half-maximal inhibition (IC50).

`COc1ccc(-c2ccc(C(=O)N3CCCC3)cc2COc2ccc(-c3nc4cc(-c5nnn[nH]5)ccc4n3C3CCCCC3)cc2)cc1OC` [Example 89] returned an IC50 of 460 nM.

With `COc1ccc(-c2ccc(C(=O)NCCC(N)=O)cc2COc2ccc(-c3nc4cc(-c5nnn[nH]5)ccc4n3C3CCCCC3)cc2)cc1OC` [Example 63], 150 nM corresponded to half-maximal inhibition (IC50).

In the case of `O=C(O)C(=O)NS(=O)(=O)c1ccc2c(c1)nc(-c1ccc(OCc3ccccc3)cc1)n2C1CCCCC1` [Example 22, [2-(4-Benzyloxy-phenyl)-1-cyclohexyl-1H-benzoimidazole-5-sulfonylamino]-3-oxo-acetic acid], half-maximal inhibition (IC50) was put at 8090 nM. Against the preceding compound, the IC50 is about 54-fold higher.

Compound `COc1ccc(-c2ccc(C(=O)O)cc2COc2ccc(-c3nc4cc(-c5nnn[nH]5)ccc4n3C3CCCCC3)cc2)cc1OC` [Example 44] showed an IC50 of 80 nM.

`O=C(c1ccc(-c2cccc(O)c2)c(COc2ccc(-c3nc4cc(-c5nnn[nH]5)ccc4n3C3CCCCC3)cc2)c1)N1CCC(O)CC1` [Example 69] came in with a half-inhibitory concentration (IC50) of 660 nM.

Compound `CNC(=O)c1ccc(-c2ccc(Cl)cc2)c(COc2ccc(-c3nc4cc(-c5nnn[nH]5)ccc4n3C3CCCCC3)cc2)c1` [Example 106] registered an IC50 of 660 nM.

On to `CC(NC(=O)c1ccc(-c2ccc(F)c(Cl)c2)c(COc2ccc(-c3nc4cc(-c5nnn[nH]5)ccc4n3C3CCCCC3)cc2)c1)C(=O)OC(C)(C)C` (centres unmarked) [Example 82], for which half-maximal inhibition (IC50) was put at 1300 nM.

Regarding `O=Cc1ccccc1-c1ccc(C(=O)O)cc1COc1ccc(-c2nc3cc(-c4nnn[nH]4)ccc3n2C2CCCCC2)cc1` [Example 36], the IC50 was 830 nM. Compared with the last compound, the IC50 is about 1.6-fold lower.

`O=C(O)C=Cc1ccc(-c2ccc(C(=O)O)cc2COc2ccc(-c3nc4cc(-c5nnn[nH]5)ccc4n3C3CCCCC3)cc2)cc1` [Example 47] showed a half-maximal inhibitory concentration (IC50) of 50 nM.

Consider `O=C(NC(Cc1ccc(O)cc1)C(=O)O)c1ccc(-c2cccc(O)c2)c(COc2ccc(-c3nc4cc(-c5nnn[nH]5)ccc4n3C3CCCCC3)cc2)c1` (centres unmarked) [Example 53], for which it took 570 nM to reach half-maximal inhibition (IC50). This IC50 lies about 11-fold higher than the previous one.

In turn, `NC(=O)CCNC(=O)c1ccc(-c2ccc3[nH]cc(C(=O)C(F)(F)F)c3c2)c(COc2ccc(-c3nc4cc(-c5nnn[nH]5)ccc4n3C3CCCCC3)cc2)c1` [Example 155] displayed a half-inhibitory concentration (IC50) of 270 nM.

In turn, `CN1CCN(C(=O)c2ccc(-c3cccc(O)c3)c(COc3ccc(-c4nc5cc(-c6nnn[nH]6)ccc5n4C4CCCCC4)cc3)c2)CC1` [Example 64] came in with an IC50 of 1200 nM. Against the preceding compound, the IC50 is about 4.4-fold higher.

In turn, `CNC(=O)c1ccc(-c2cccc(O)c2)c(COc2ccc(-c3nc4cc(-c5nnn[nH]5)ccc4n3C3CCCCC3)cc2)c1` [Example 68] gave an IC50 of 540 nM.

`O=C(c1ccc(-c2cccc(O)c2)c(COc2ccc(-c3nc4cc(-c5nnn[nH]5)ccc4n3C3CCCCC3)cc2)c1)N(CCO)CCO` [Example 70] showed a half-maximal inhibitory concentration (IC50) of 500 nM.

Regarding `COc1ccc(-c2ccc(C(=O)O)cc2COc2ccc(-c3nc4cc(-c5nnn[nH]5)ccc4n3C3CCCCC3)cc2)cc1` [Example 25], the half-inhibitory concentration (IC50) came out at 40 nM.

`N#Cc1ccc(-c2ccc(C(=O)O)cc2COc2ccc(-c3nc4cc(-c5nnn[nH]5)ccc4n3C3CCCCC3)cc2)cc1` [Example 34]: the concentration for half-maximal inhibition (IC50) was determined as 40 nM.

With `O=C(O)c1ccc(-c2ccccc2-c2ccccc2)c(COc2ccc(-c3nc4cc(-c5nnn[nH]5)ccc4n3C3CCCCC3)cc2)c1` [Example 29], half-maximal inhibition (IC50) required 250 nM. Compared with the last compound, the IC50 is about 6.2-fold higher.

Take `O=C(O)c1ccc(-c2cccc3ccccc23)c(COc2ccc(-c3nc4cc(-c5nnn[nH]5)ccc4n3C3CCCCC3)cc2)c1` [Example 28]: 620 nM corresponded to half-maximal inhibition (IC50). This IC50 is about 2.5-fold higher than that of the compound before.

`O=C(O)c1ccc(-c2ccc([N+](=O)[O-])cc2)c(COc2ccc(-c3nc4cc(-c5nnn[nH]5)ccc4n3C3CCCCC3)cc2)c1` [Example 41] returned an IC50 of 50 nM.

For `NC(=O)CCNC(=O)c1ccc(-c2ccc(F)c(Cl)c2)c(COc2ccc(-c3nc4cc(-c5nnn[nH]5)ccc4n3C3CCCCC3)cc2)c1` [Example 59], the midpoint of inhibition, the IC50, lay at 920 nM.

For `O=C(c1ccc(-c2ccc(F)c(Cl)c2)c(COc2ccc(-c3nc4cc(-c5nnn[nH]5)ccc4n3C3CCCCC3)cc2)c1)N(CCO)CCO` [Example 81], the IC50 was determined as 1100 nM.
